Results reported in patent publication US7718808B2, “Thiazole derivatives” (Kyowa Hakko Kirin Co., Ltd., priority 2003, dated 2010).

SMILES | melting point
O=C(Nc1nc(-c2ccco2)c(C(=O)c2cccnc2)s1)c1ccco1 [Compound 307, N-[4-(2-Furyl)-5-(pyridin-3-ylcarbonyl)thiazol-2-yl]furan-2-carboxamide] | 234 to 236 °C
Cc1ncccc1C(=O)c1sc(NC(=O)c2ccncc2)nc1-c1ccco1 [Compound 310, N-[4-(2-Furyl)-5-(2-methylpyridin-3-ylcarbonyl)thiazol-2-yl]pyridine-4-carboxamide] | 230 to 234 °C
Cc1ccc(C(=O)c2sc(NC(=O)c3ccncc3)nc2-c2ccco2)cn1 [Compound 313, N-[4-(2-Furyl)-5-(2-methylpyridin-5-ylcarbonyl)thiazol-2-yl]pyridine-4-carboxamide] | 230 to 232 °C (dec.)
Cc1ccc(C(=O)c2sc(NC(=O)c3ccc(C#N)cc3)nc2-c2ccco2)cn1 [Compound 314, 4-Cyano-N-[4-(2-furyl)-5-(2-methylpyridin-5-ylcarbonyl)thiazol-2-yl]benzamide] | 261 to 265 °C
Cc1ccc(C(=O)c2sc(NC(=O)c3ccco3)nc2-c2ccco2)cn1 [Compound 315, N-[4-(2-Furyl)-5-(2-methylpyridin-5-ylcarbonyl)thiazol-2-yl]furan-2-carboxamide] | 197 to 209 °C
Cc1ccc(C(=O)c2sc(NC(=O)c3ccoc3)nc2-c2ccco2)cn1 [Compound 316, N-[4-(2-Furyl)-5-(2-methylpyridin-5-ylcarbonyl)thiazol-2-yl]furan-3-carboxamide] | 229 to 231 °C
COc1ccc(C(=O)c2sc(NC(=O)c3ccncc3)nc2-c2ccco2)cn1 [Compound 319, N-[4-(2-Furyl)-5-(2-methoxypyridin-5-ylcarbonyl)thiazol-2-yl]pyridine-4-carboxamide] | 246 to 257 °C (dec.)
O=C(Nc1nc(-c2ccco2)c(C(=O)c2ccc(N3CCOCC3)nc2)s1)c1ccncc1 [Compound 324, N-[4-(2-Furyl)-5-(2-morpholinopyridin-5-ylcarbonyl)thiazol-2-yl]pyridine-4-carboxamide] | 195 to 205 °C
CN1CCN(c2ccc(C(=O)c3sc(NC(=O)c4ccncc4)nc3-c3ccco3)cn2)CC1 [Compound 325, N-(4-(2-Furyl)-5-[2-(4-methylpiperazin-1-yl)pyridin-5-ylcarbonyl]thiazol-2-yl)pyridine-4-carboxamide] | 195 to 205 °C
O=C(Nc1nc(-c2ccco2)c(C(=O)c2ccc(N3CCC(O)CC3)nc2)s1)c1ccncc1 [Compound 326, N-{4-(2-Furyl)-5-[2-(4-hydroxypiperidino)pyridin-5-ylcarbonyl]thiazol-2-yl}pyridine-4-carboxamide] | 264 to 268 °C
O=C(Nc1nc(-c2ccco2)c(C(=O)c2ccncc2)s1)c1ccncc1 [Compound 329, N-[4-(2-Furyl)-5-(pyridin-4-ylcarbonyl)thiazol-2-yl]pyridine-4-carboxamide] | 276 to 285 °C
Cc1cc(C(=O)c2sc(NC(=O)c3ccncc3)nc2-c2ccco2)ccn1 [Compound 332, N-[4-(2-Furyl)-5-(2-methylpyridin-4-ylcarbonyl)thiazol-2-yl]pyridine-4-carboxamide] | 223 to 225 °C
Cc1cc(C(=O)Nc2nc(-c3ccco3)c(C(=O)c3ccnc(C)c3)s2)ccn1 [Compound 333, N-[4-(2-Furyl)-5-(2-methylpyridin-4-ylcarbonyl)thiazol-2-yl]-2-methylpyridine-4-carboxamide] | 205 to 229 °C
COc1cc(C(=O)c2sc(NC(=O)c3ccncc3)nc2-c2ccco2)ccn1 [Compound 336, N-[4-(2-Furyl)-5-(2-methoxypyridin-4-ylcarbonyl)thiazol-2-yl]pyridine-4-carboxamide] | 237 to 239 °C
O=C(Nc1nc(-c2ccco2)c(C(=O)c2ccnc(N3CCOCC3)c2)s1)c1ccncc1 [Compound 339, N-[4-(2-Furyl)-5-(2-morpholinopyridin-4-ylcarbonyl)thiazol-2-yl]pyridine-4-carboxamide] | 270 to 273 °C
O=C(Nc1nc(-c2ccco2)c(C(=O)c2ccco2)s1)c1ccncc1 [Compound 342, N-[4-(2-Furyl)-5-(furan-2-ylcarbonyl)thiazol-2-yl]pyridine-4-carboxamide] | 245 to 248 °C
Cc1ccc(C(=O)c2sc(NC(=O)c3ccncc3)nc2-c2ccco2)o1 [Compound 343, N-[4-(2-Furyl)-5-(5-methylfuran-2-ylcarbonyl)thiazol-2-yl]pyridine-4-carboxamide] | 185 to 189 °C
O=C(Nc1nc(-c2ccco2)c(C(=O)c2ccoc2)s1)c1ccncc1 [Compound 346, N-[4-(2-furyl)-5-(furan-3-ylcarbonyl)thiazol-2-yl]pyridine-4-carboxamide] | 217 to 231 °C
O=C(Nc1nc(-c2ccco2)c(C(=O)c2cccs2)s1)c1ccncc1 [Compound 347, N-[4-(2-Furyl)-5-(thiophen-2-ylcarbonyl)thiazol-2-yl]pyridine-4-carboxamide] | 208 to 210 °C
Cc1cnc(C(=O)c2sc(NC(=O)c3ccncc3)nc2-c2ccco2)s1 [Compound 349, N-[4-(2-Furyl)-5-(5-methylthiazol-2-ylcarbonyl)thiazol-2-yl]pyridine-4-carboxamide] | 275 to 277 °C (dec.)
Cc1csc(C(=O)c2sc(NC(=O)c3ccncc3)nc2-c2ccco2)n1 [Compound 350, N-[4-(2-Furyl)-5-(4-methylthiazol-2-ylcarbonyl)thiazol-2-yl]pyridine-4-carboxamide] | 250 to 255 °C
Cc1nc(C(=O)c2sc(NC(=O)c3ccncc3)nc2-c2ccco2)sc1C [Compound 351, N-[5-(4,5-Dimethylthiazol-2-ylcarbonyl)-4-(2-furyl)thiazol-2-yl]pyridine-4-carboxamide] | 270 to 272 °C (dec.)
Cn1ccc(C(=O)c2sc(NC(=O)c3ccncc3)nc2-c2ccco2)c1 [Compound 354, N-[4-(2-Furyl)-5-(1-methylpyrrol-3-ylcarbonyl)thiazol-2-yl]pyridine-4-carboxamide] | 209 to 211 °C
CCn1ccc(C(=O)c2sc(NC(=O)c3ccncc3)nc2-c2ccco2)c1 [Compound 355, N-[5-(1-Ethylpyrrol-3-ylcarbonyl)-4-(2-furyl)thiazol-2-yl]pyridine-4-carboxamide] | 127 to 134 °C
O=C(Nc1nc(-c2ccco2)c(C(=O)c2ccn(Cc3ccccc3)c2)s1)c1ccncc1 [Compound 356, N-[5-(1-Benzylpyrrol-3-ylcarbonyl)-4-(2-furyl)thiazol-2-yl]pyridine-4-carboxamide] | 175 to 178 °C
Cn1cc(C(=O)c2sc(NC(=O)c3ccncc3)nc2-c2ccco2)ccc1=O [Compound 360, N-[4-(2-Furyl)-5-(1-methyl-2-oxo-1,2-dihydropyridin-5-ylcarbonyl)thiazol-2-yl]pyridine-4-carboxamide] | 294 to 295 °C

Other lines, results leading:

melting point | SMILES
295 to 296 °C | CCn1cc(C(=O)c2sc(NC(=O)c3ccncc3)nc2-c2ccco2)ccc1=O [Compound 362, N-[5-(1-Ethyl-2-oxo-1,2-dihydropyridin-5-ylcarbonyl)-4-(2-furyl)thiazol-2-yl]pyridine-4-carboxamide]
265 to 282 °C (dec.) | O=C(Nc1nc(-c2ccco2)c(C(=O)c2ccc(=O)n(Cc3ccccc3)c2)s1)c1ccncc1 [Compound 364, N-[5-(1-Benzyl-2-oxo-1,2-dihydropyridin-5-ylcarbonyl)-4-(2-furyl)thiazol-2-yl]pyridine-4-carboxamide]
243 to 255 °C (dec.) | Cn1ccc(C(=O)c2sc(NC(=O)c3ccncc3)nc2-c2ccco2)cc1=O [Compound 367, N-[4-(2-Furyl)-5-(1-methyl-2-oxo-1,2-dihydropyridin-4-ylcarbonyl)thiazol-2-yl]pyridine-4-carboxamide]
277 to 281 °C | CCn1ccc(C(=O)c2sc(NC(=O)c3ccncc3)nc2-c2ccco2)cc1=O [Compound 369, N-[5-(1-Ethyl-2-oxo-1,2-dihydropyridin-4-ylcarbonyl)-4-(2-furyl)thiazol-2-yl]pyridine-4-carboxamide]
288 to 291 °C | O=C(Nc1nc(-c2ccco2)c(C(=O)c2ccn(Cc3ccccc3)c(=O)c2)s1)c1ccncc1 [Compound 371, N-[5-(1-Benzyl-2-oxo-1,2-dihydropyridin-4-ylcarbonyl)-4-(2-furyl)thiazol-2-yl]pyridine-4-carboxamide]
> 300 °C | O=C(Nc1nc(-c2ccco2)c(C(=O)c2cnccn2)s1)c1ccncc1 [Compound 374, N-[4-(2-Furyl)-5-(pyrazin-2-ylcarbonyl)thiazol-2-yl]pyridine-4-carboxamide]
> 300 °C | O=C(Nc1nc(-c2ccco2)c(C(=O)c2ccncn2)s1)c1ccncc1 [Compound 375, N-[4-(2-Furyl)-5-(pyrimidin-4-ylcarbonyl)thiazol-2-yl]pyridine-4-carboxamide]
280 to 281 °C | O=C(Nc1nc(-c2ccco2)c(C(=O)c2cccnn2)s1)c1ccncc1 [Compound 376, N-[4-(2-Furyl)-5-(pyridazin-3-ylcarbonyl)thiazol-2-yl]pyridine-4-carboxamide]
252 to 259 °C (dec.) | CC(=O)c1sc(NC(=O)c2ccncc2)nc1-c1ccco1 [Compound 377, N-[5-Acetyl-4-(2-furyl)thiazol-2-yl]pyridine-4-carboxamide]
268 to 270 °C | O=C(Nc1nc(-c2ccco2)c(C(=O)C(F)(F)F)s1)c1ccncc1 [Compound 380, N-[4-(2-Furyl)-5-(trifluoroacetyl)thiazol-2-yl]pyridine-4-carboxamide]
225 to 240 °C (dec.) | CCC(=O)c1sc(NC(=O)c2ccncc2)nc1-c1ccco1 [Compound 381, N-[4-(2-Furyl)-5-propionylthiazol-2-yl]pyridine-4-carboxamide]
191 to 194 °C | CCCC(=O)c1sc(NC(=O)c2ccncc2)nc1-c1ccco1 [Compound 382, N-[5-Butyryl-4-(2-furyl)thiazol-2-yl]pyridine-4-carboxamide]
170 to 172 °C | CCCC(=O)c1sc(NC(=O)C2CC2)nc1-c1ccco1 [Compound 385, N-[5-Butyryl-4-(2-furyl)thiazol-2-yl]cyclopropanecarboxamide]
195 to 199 °C | CC(C)C(=O)c1sc(N)nc1-c1ccco1 [Compound 392, 2-Amino-4-(2-furyl)thiazol-5-yl isopropyl ketone]
